The values below come from ChEMBL document CHEMBL5137085, “GNE-064: A Potent, Selective, and Orally Bioavailable Chemical Probe for the Bromodomains of SMARCA2 and SMARCA4 and the Fifth Bromodomain of PBRM1” (J Med Chem, 2022).

A short description of data set [1]: Kinetic solubility of compound. The conditions noted are these: read-out: Kinetic_solubility. It counts as physicochemical.
A short description of data set [2]: Lipophilicity, LogD of compound. It counts as physicochemical. The conditions noted are these: octanol/water.
Data set [3] concerns the target Bromodomain-containing protein 4 (Homo sapiens, UniProt O60885). The experiment in a line: Inhibition of BRD4 bromodomain 1 (unknown origin) by TR-FRET assay. (In general: TR-FRET usually uses a lanthanide donor and a delayed reading to cut background.)
The target in data set [4] is T1, Protein polybromo-1 (Homo sapiens, UniProt Q86U86). In words: Binding affinity to human PBRM1 bromodomain 2 (S178 to E291 residues) expressed in bacterial expression system by bromoscan assay.
For data set [5], the target named is T2, SWI/SNF-related matrix-associated actin-dependent regulator of chromatin subfamily A member 4 (Homo sapiens, UniProt P51532). The experiment in a line: Binding affinity to human SMARCA4 (A1448 to S1575 residues) expressed in bacterial expression system by bromoscan assay.
The target in data set [6] is T1, Protein polybromo-1. In words: Inhibition of PBRM1 bromodomain 5 (unknown origin) by TR-FRET assay.
The target of data set [7] is T3, SWI/SNF-related matrix-associated actin-dependent regulator of chromatin subfamily A member 2 (Homo sapiens, UniProt P51531). In words: Binding affinity to human SMARCA2 (S1337 to Q1486 residues) expressed in bacterial expression system by bromoscan assay.
Data set [8] addresses T3, SWI/SNF-related matrix-associated actin-dependent regulator of chromatin subfamily A member 2. The experiment in a line: Inhibition of SMARCA2 (unknown origin) by TR-FRET assay.
Data set [9] has as its target T2, SWI/SNF-related matrix-associated actin-dependent regulator of chromatin subfamily A member 4.
Data set [10] shares this target. In words: Binding affinity to His6/FLAG-tagged SMARCA4 (unknown origin) by isothermal titration calorimetric assay.
Data set [11] addresses T1, Protein polybromo-1. In words: Binding affinity to human PBRM1 bromodomain 5 (S645 to D766 residues) expressed in bacterial expression system by bromoscan assay.
Data set [12] is described as follows: Oral bioavailability in CD-1 mouse at 1 mg/kg. The data set is classed as ADME, organism-based. The conditions noted are these: in vivo.
Data set [13] can be described thus: Tmax in CD-1 mouse at 1 mg/kg, po. It counts as ADME, organism-based. The conditions noted are these: in vivo.
Data set [14] is described as follows: Protein binding in mouse plasma. To be noted: read-out: PPB (converted). It counts as ADME, cell-free.
A short description of data set [15]: Clearance in CD-1 mouse at 0.5 mg/kg, iv. It counts as ADME, organism-based. To be noted: in vivo.
Data set [16] is described as follows: Cmax in CD-1 mouse at 1 mg/kg, po. Further details: dose 1 mg/kg, route po. To be noted: in vivo. It counts as ADME, organism-based.
Data set [17] is described as follows: Unbound clearance in CD-1 mouse at 0.5 mg/kg, iv. It counts as ADME, organism-based. To be noted: in vivo.
The nature of data set [18]: Half life in CD-1 mouse at 0.5 mg/kg, iv. The data set is classed as ADME, organism-based. To be noted: in vivo.
In data set [19] the target is T4, Cytochrome P450 2C8 (Homo sapiens, UniProt P10632).
T4 sequence (P10632 whole entry): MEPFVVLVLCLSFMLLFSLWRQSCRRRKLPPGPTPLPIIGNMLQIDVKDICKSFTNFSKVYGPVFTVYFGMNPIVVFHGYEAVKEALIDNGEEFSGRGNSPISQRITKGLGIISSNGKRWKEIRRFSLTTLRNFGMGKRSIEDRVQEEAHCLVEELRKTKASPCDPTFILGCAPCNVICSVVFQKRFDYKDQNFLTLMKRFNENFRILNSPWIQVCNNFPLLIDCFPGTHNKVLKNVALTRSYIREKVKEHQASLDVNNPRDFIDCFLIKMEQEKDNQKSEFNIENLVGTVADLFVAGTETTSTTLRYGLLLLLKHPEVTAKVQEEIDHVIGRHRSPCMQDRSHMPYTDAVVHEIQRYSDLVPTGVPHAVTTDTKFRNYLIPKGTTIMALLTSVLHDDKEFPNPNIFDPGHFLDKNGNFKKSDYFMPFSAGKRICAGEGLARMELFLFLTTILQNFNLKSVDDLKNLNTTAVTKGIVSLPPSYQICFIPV
The experiment in a line: Inhibition of CYP2C8 (unknown origin). It counts as ADME.

Data set [20] addresses Cytochrome P450 2C9 (Homo sapiens, UniProt P11712). The experiment in a line: Inhibition of CYP2C9 (unknown origin). It counts as ADME.
Data set [21] can be described thus: Fraction unbound in CD-1 mouse at 1 mg/kg, po. The data set is classed as ADME, organism-based. The conditions noted are these: in vivo.
A short description of data set [22]: Unbound volume of distribution at steady state in CD-1 mouse at 0.5 mg/kg, iv. The data set is classed as ADME, organism-based. To be noted: in vivo.
The nature of data set [23]: Protein binding in human plasma. The data set is classed as ADME, cell-free. To be noted: read-out: PPB (converted).
Data set [24] in a line: Volume of distribution at steady state in CD-1 mouse at 0.5 mg/kg, iv. It counts as ADME, organism-based. To be noted: in vivo, read-out: Vdss.
Data set [25] addresses Cytochrome P450 3A4 (Homo sapiens, UniProt P08684). In words: Inhibition of CYP3A4 (unknown origin). The data set is classed as ADME.
The target of data set [26] is T5, Cytochrome P450 1A2 (Homo sapiens, UniProt P05177).
T5 sequence (P05177 whole entry): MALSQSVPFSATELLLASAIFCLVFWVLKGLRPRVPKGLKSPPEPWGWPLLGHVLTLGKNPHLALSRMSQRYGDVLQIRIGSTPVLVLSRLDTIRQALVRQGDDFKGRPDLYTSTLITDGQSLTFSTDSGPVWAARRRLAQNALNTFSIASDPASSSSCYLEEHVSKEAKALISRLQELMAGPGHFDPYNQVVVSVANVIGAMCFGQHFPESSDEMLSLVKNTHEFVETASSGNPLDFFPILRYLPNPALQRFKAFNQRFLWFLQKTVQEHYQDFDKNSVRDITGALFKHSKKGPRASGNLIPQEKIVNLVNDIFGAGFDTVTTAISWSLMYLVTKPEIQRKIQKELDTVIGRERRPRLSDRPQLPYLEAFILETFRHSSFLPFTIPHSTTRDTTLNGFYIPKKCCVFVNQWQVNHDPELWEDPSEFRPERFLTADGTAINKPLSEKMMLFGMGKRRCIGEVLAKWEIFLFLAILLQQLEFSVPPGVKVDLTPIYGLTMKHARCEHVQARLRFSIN
The experiment in a line: Inhibition of CYP1A2 (unknown origin). The data set is classed as ADME.

The target in data set [27] is Cytochrome P450 2C19 (Homo sapiens, UniProt P33261). The experiment in a line: Inhibition of CYP2C19 (unknown origin). It counts as ADME.
Data set [28] can be described thus: Protein binding in rat plasma. It counts as ADME, cell-free. The conditions noted are these: read-out: PPB (converted).
The target of data set [29] is Cytochrome P450 2D6 (Homo sapiens, UniProt P10635). In words: Inhibition of CYP2D6 (unknown origin). The data set is classed as ADME.

Converted amounts (≈) assume the structure as drawn.

T3 sequence (P51531 whole entry, the tested form may be a part): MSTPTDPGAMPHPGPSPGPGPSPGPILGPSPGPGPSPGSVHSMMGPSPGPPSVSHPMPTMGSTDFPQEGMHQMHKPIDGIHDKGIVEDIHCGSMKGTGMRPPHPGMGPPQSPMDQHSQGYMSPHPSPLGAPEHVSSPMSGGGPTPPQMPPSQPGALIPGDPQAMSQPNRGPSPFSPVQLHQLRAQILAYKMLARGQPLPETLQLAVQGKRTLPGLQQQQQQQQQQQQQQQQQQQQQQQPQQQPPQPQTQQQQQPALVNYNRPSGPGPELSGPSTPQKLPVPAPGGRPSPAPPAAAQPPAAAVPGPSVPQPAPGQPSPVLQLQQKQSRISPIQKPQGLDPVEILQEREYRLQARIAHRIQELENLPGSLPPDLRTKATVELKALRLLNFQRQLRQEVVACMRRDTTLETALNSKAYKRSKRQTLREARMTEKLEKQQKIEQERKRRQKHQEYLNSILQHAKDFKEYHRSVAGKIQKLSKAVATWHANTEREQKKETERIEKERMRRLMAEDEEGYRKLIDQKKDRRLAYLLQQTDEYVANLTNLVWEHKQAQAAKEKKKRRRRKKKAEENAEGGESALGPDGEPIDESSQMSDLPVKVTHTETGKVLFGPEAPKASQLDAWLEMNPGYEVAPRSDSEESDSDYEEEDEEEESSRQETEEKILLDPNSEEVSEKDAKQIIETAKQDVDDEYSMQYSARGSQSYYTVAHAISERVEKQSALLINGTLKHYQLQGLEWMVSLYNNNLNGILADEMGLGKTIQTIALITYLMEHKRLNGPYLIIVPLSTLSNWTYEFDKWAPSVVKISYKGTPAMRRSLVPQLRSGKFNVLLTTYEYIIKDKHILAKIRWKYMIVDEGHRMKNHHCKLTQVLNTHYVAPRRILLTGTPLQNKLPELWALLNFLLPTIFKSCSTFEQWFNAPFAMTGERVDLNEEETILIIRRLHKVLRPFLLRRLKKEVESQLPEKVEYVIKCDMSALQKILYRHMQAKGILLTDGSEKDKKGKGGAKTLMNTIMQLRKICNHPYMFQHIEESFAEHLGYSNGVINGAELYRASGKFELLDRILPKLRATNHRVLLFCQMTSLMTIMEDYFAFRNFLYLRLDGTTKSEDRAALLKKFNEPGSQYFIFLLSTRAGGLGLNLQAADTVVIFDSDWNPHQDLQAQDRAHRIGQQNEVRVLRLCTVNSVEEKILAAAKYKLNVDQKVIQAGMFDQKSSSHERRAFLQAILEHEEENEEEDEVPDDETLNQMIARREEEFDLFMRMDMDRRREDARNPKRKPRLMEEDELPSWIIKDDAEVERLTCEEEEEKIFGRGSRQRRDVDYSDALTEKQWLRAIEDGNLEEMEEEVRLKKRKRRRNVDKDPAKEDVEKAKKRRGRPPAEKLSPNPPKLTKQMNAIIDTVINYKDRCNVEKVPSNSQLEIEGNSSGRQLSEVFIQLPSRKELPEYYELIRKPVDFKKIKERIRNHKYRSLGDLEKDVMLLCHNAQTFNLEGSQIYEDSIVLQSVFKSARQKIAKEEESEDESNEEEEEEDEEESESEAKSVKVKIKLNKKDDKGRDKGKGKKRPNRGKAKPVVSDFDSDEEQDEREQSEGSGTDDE
T2 sequence (P51532 whole entry, the tested form may be a part): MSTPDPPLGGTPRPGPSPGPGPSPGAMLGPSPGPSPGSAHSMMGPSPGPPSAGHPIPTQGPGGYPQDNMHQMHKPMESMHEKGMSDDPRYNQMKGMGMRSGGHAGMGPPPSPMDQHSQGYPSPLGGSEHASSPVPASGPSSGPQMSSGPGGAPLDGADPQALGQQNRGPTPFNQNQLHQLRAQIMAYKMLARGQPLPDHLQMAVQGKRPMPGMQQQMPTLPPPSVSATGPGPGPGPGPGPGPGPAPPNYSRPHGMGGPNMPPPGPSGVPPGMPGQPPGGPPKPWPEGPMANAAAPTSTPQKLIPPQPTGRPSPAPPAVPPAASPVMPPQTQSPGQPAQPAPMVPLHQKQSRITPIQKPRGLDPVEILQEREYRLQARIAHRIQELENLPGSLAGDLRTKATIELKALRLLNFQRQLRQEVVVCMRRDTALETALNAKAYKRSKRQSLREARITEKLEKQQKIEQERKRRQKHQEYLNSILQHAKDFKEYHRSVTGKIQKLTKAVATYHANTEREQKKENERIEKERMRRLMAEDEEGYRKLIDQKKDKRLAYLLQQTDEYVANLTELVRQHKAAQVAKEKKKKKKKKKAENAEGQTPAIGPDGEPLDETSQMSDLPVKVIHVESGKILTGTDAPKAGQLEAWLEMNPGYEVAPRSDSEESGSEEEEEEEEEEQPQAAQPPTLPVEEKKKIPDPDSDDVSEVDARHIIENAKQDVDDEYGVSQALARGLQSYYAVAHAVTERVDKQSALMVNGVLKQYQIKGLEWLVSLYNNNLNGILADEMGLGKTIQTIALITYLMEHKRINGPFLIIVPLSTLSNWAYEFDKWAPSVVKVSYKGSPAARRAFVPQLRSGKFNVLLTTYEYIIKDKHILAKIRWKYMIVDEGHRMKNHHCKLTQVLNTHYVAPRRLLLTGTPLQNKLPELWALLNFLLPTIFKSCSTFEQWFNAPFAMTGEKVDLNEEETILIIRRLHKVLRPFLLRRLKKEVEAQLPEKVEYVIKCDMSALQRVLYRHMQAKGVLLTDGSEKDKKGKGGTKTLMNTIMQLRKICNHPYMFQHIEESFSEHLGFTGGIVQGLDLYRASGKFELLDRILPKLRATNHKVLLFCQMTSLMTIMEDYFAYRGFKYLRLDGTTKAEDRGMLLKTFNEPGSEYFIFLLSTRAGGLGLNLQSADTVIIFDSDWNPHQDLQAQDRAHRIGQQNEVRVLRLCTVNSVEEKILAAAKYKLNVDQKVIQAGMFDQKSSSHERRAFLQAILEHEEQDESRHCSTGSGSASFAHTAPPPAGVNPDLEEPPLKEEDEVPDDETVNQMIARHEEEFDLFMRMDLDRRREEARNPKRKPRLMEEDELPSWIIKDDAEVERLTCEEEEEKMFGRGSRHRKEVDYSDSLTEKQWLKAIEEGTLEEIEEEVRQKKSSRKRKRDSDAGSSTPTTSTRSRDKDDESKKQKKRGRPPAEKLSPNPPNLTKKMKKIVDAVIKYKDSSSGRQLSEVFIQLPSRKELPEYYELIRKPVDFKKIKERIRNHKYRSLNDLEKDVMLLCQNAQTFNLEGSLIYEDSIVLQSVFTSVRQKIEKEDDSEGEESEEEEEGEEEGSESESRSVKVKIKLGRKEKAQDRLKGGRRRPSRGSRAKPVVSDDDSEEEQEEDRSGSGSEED
T1 sequence (Q86U86 whole entry, the tested form may be a part): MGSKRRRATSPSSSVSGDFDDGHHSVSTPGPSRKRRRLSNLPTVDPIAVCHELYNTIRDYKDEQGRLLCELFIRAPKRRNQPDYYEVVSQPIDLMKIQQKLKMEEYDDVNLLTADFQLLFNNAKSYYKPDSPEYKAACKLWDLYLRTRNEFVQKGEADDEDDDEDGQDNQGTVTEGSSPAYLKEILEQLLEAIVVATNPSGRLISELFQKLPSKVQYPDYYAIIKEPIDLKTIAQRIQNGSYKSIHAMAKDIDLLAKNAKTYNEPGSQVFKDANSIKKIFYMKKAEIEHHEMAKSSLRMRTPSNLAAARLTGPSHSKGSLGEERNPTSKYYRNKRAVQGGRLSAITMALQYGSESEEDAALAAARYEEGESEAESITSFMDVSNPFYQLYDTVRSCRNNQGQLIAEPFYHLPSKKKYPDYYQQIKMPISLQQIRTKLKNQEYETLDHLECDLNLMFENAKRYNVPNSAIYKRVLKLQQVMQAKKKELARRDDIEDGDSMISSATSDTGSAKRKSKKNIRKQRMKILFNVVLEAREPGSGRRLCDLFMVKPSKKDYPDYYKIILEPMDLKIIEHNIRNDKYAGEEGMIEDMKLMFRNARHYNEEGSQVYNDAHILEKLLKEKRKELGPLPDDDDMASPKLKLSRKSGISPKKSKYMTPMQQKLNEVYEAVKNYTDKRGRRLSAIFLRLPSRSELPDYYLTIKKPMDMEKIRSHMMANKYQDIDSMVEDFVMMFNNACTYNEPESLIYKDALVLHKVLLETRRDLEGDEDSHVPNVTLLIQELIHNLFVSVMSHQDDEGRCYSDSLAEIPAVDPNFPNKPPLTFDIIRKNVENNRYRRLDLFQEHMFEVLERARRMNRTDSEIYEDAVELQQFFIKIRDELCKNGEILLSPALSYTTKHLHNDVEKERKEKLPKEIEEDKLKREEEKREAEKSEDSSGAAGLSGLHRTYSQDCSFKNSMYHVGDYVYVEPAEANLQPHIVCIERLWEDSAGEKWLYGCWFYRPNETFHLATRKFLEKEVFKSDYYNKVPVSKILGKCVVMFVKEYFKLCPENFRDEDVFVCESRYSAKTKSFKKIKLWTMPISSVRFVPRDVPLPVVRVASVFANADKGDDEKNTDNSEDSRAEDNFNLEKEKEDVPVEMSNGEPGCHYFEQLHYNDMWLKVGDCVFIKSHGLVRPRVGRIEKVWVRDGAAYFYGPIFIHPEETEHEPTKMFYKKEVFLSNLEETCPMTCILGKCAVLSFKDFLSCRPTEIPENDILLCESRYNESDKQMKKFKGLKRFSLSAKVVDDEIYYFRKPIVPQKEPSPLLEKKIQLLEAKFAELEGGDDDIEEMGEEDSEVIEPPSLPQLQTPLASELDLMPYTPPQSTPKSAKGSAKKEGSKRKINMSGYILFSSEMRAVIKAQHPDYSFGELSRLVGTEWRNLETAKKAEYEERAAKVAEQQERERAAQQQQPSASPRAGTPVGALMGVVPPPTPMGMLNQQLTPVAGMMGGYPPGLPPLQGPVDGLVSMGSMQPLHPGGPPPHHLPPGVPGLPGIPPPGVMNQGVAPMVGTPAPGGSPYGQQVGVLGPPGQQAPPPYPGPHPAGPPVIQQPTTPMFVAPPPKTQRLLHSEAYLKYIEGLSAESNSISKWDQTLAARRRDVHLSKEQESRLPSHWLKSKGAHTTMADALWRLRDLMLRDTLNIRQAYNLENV

The logD is lipophilicity at a set pH, counting ionised and neutral species. The low end stands for lower lipophilicity, the high end for higher lipophilicity. The term IC50 denotes the concentration that inhibits the measured activity by half. Low readings indicate higher potency, high ones lower potency. Turning to `Nc1nnc(-c2ccccc2O)cc1-c1ccccc1`, in [1], the solubility kinetic was 11 µM (≈ 2.9 µg/mL). Further, the logD in data set [2] was 3.3. This compound also registered an IC50 in data set [3] of 27 µM.

As usually defined, the Kd is a measure of binding affinity in units of concentration. For `Nc1nnc2c([nH]c3ccccc32)c1-c1ccccc1`, the Kd in [4] stood at 0.17 µM; in data set [5] it was 0.51 µM; in data set [7], 0.34 µM; in data set [10], 3.5 µM; in data set [11], 0.58 µM. Besides, the IC50 in [6] is 3.1 µM; in [8], 4.3 µM; in data set [9] it was 5.3 µM; in data set [3] it was > 100 µM.

For `Nc1nnc(-c2ccccc2)cc1-c1ccccc1`, the dissociation constant (Kd) in data set [4] turned out to be 5.7 µM; in [5], 10 µM; in data set [7], 4.4 µM; in data set [11], 27 µM. For the same compound, the concentration for half-maximal inhibition (IC50) in data set [9] is 57.1 µM; in data set [3], > 100 µM.

The bioavailability is dose-corrected exposure relative to a reference, in per cent. A higher bioavailability goes with good availability. As usually defined, the Tmax is the time from dosing to the highest level. Usually clearance stands for the volume of plasma or blood freed of the substance per unit of time. Higher therefore signals a high capacity for elimination. What is called Cmax is the highest concentration seen after dosing. One may read the half-life as the time needed for the level to fall by half in the phase considered. Read a high half-life as slow loss. In [12], `CC(=O)N1CCN(c2cc(-c3ccccc3O)nnc2N)C[C@H]1C` showed a bioavailability of 59%. For the same compound, in data set [13], the Tmax is 30 min. For the same compound, the fraction unbound is 0.31 in data set [14], 0.31 in [21], 0.24 in data set [23] and 0.41 in [28]. For the same compound, the clearance in data set [15] was found to be 16 mL/min/kg. The concentration in [16] peaked (Cmax) at 1000 nM. This compound also came in with a CL free in [17] of 52 mL/min/kg. Moreover, the half-life in data set [18] was 66 min. The IC50 in data set [19] is > 10 µM; in data set [20], > 10 µM; in data set [25], > 10 µM; in data set [26], > 10 µM; in data set [27], > 10 µM; in data set [3], 34 µM. Besides, the IC50 in [29] is > 10 µM. Further, the solubility kinetic in data set [1] stood at 120 µM (≈ 39.3 µg/mL). The compound also displayed a Vduss in data set [22] of 3.2 L/kg. Also, the Vd in data set [24] is 1 L/kg. This compound also had a logD in [2] of 2.
